Test results taken from patent publication US20150126368A1, “METHOD OF PROVIDING PLANT WITH STRESS RESISTANCE” (Nippon Soda Co., Ltd., priority 2012, published 2015).
Where two headings read alike, the source gives them in different places.

How the values were obtained:
[1] = tested on: tomato yellow leaf curl virus (TYLCV); assay: Test for symptom relief effects against tomato yellow leaf curl virus disease; assay type: in vivo; conditions: 500 ppm alone
Protocol: N,N-dimethylformamide based solutions were prepared according to the formulations shown in Table 18 to give chemical liquids for the tests.
Tomato nursery plants (breed: Momotaro) grown up to the 8 leaf stage in a greenhouse were prepared.
Tomato nursery plants suffering from tomato yellow leaf curl virus (TYLCV) were used as inoculation sources.
A diseased plant was obliquely cut in round slices at the stem, and graft-inoculated to a tomato nursery plant. In order to prevent dryness, parafilm was wrapped around the grafted portion for protection.
After the graft inoculation, the above chemical solution was sprayed on the stem and leaf part of the tomato nursery plant in a sufficient amount. Then, the above chemical solution was sprayed 3 times at intervals of about one week in a sufficient amount. Symptoms of tomato yellow leaf curl disease were investigated at an elapsed time of 25 days.
Symptoms were evaluated by 5 levels of onset indices of 0 (with no onset) to 4 (fulminant).
Onset inhibition percentages as compared with a region treated with solvent DMF only (Chemical solution 3) were computed by the following formula.
Onset inhibition percentage=(onset index of region treated with solvent only)−(onset index of each treatment region))/(onset index of region treated with solvent only)×100
Further, the expectation values of onset inhibition percentages were computed based on the Colby's equation.
The Colby's equation is E=M+N−MN/100. In the equation, E represents the expectation value of an onset inhibition percentage (%), and M represents an onset inhibition percentage (%) calculated from measurements when the substance (A1) is used alone, and N represent an onset inhibition percentage (%) calculated from measurements when the substance (A2) is used alone.

[2] = tested on: Tomato nursery plants (breed: Momotaro); assay type: in vivo; conditions: spray, 7 days; for phytotoxicity index: index 0 to 10
Protocol: N,N-dimethylformamide based solutions were prepared according to the formulations shown in Table 10 to give chemical solutions for the tests.
Tomato nursery plants (breed: Momotaro) grown up to the 4 leaf stage in a greenhouse were prepared.
The above chemical solution was sprayed to the stem and leaf parts of the above tomato nursery plants in an amount of liquid dropping, and then air dried. They were allowed to grow for 7 days under the average temperature and humidity conditions on March in Japan.
Subsequently, phytotoxicity such as a degree of leaf browning and outgrowth inhibition was investigated.
Phytotoxicity was evaluated by 11 levels of phytotoxicity indices of 0 (with no disorder) to 10 (withering to death).
Chemical poisoning injury relief percentages as compared with a region treated with solvent DMF only were computed by the following formula.
Chemical poisoning injury relief percentage=(phytotoxicity index of region treated with solvent only)−(phytotoxicity index of each treated region))/(phytotoxicity index of region treated with solvent only)×100

[3] = agric. chemical 100 ppm alone (reference)
[4] = agric. chemical 200 ppm alone (reference)

| SMILES | Onset percentage(%) ([1]; tomato graft-inoculated, sprayed 4 times, 25 days) | Onset inhibition percentage(%) ([1]; vs solvent DMF only, 25 days) | Expectation value(%) ([1]; expectation value of onset inhibition percentage) | relief percents of phytotoxicity (%) [2, 3] [%] | phytotoxicity index ([2]; agric. chemical 100 ppm alone) | relief percents of phytotoxicity (%) [2, 4] [%] | phytotoxicity index ([2]; agric. chemical 200 ppm alone) |
| --- | --- | --- | --- | --- | --- | --- | --- |
| O=C1O[C@H]([C@@H](O)CO)C(O)=C1O[C@H]1O[C@H](CO)[C@@H](O)[C@H](O)[C@H]1O [Ascorbyl glucoside] | 40 | 20 | 20 |  |  |  |  |
| CO/C=C(/C(=O)OC)c1ccccc1Oc1cc(Oc2ccccc2C#N)ncn1 [Azoxystrobin] |  |  |  | 0 | 5 | 0 | 6 |
| O=[N+]([O-])c1cc(C(F)(F)F)c(Cl)c([N+](=O)[O-])c1Nc1ncc(C(F)(F)F)cc1Cl [Fluazinam] |  |  |  | 0 | 6 | 0 | 6 |
